Reference: patent US20230151010A1, “CRYSTALLINE FORMS OF (9R, 135S)-13- {4-[5-CHLORO-2-(4-CHLORO-1H,2,3- TRIAZOL- 1 -YL)PHENYL] -6-OXO- 1,6-DIHYDROPYRIMIDIN- 1-YL}-3-(DIFLUOROMETHYL)-9-METHYL-3,4,7,15- TETRAAZATRICYCLO [ 12.3.1.0 2·6] OCTADECA- 1(18), 2(6), 4, 14, 16-PENTAEN-8-ONE” (Bristol-Myers Squibb Company, priority 2020, published 2023)

Legend:
Format in all cases: physicochemical
[1] = Dynamic vapor sorption (DVS)
Procedure: About 20 mg of the crystalline form was transferred into a dynamic vapor sorption instrument from Surface Measurement Systems Ltd. (SMS). The weight change was recorded relative to the relative humidity (Target RH %) at 25° C.
Crystalline Forms A and J were analyzed by dynamic vapor sorption (DVS) according to the conditions described in the General Procedures.

[2] = Hygroscopicity of forms from the polymorph preparations (method not given)
[3] = VT-PXRD analysis of form change
[4] = Thermogravimetric analysis (TGA); conditions: heating 10° C./min, nitrogen
Procedure: TA INSTRUMENT® models Q5000, Q500, or 2950 were used to generate TGA data. The measurement was made using standard TA Instruments Platinum pans. The measurement was made at a heating rate of 10° C./min, in a nitrogen environment from room temperature to 300° C., with a sample size about 10-30 mg.
Crystalline Forms A and J were analyzed by thermogravimetric analysis (TGA) according to the conditions described in the General Procedures. Exemplary TGA thermograms for Forms A and J are shown in FIGS. 4 and 13D, respectively.

C[C@@H]1CCC[C@H](n2cnc(-c3cc(Cl)ccc3-n3cc(Cl)nn3)cc2=O)c2cc(ccn2)-c2c(cnn2C(F)F)NC1=O [Form A, (9R,13S)-13-{4-[5-chloro-2-(4-chloro-1H-1,2,3-triazol-1-yl)phenyl]-6-oxo-1,6-dihydropyrimidin-1-yl}-3-(difluoromethyl)-9-methyl-3,4,7,15-tetraazatricyclo[12.3.1.0^2,6]octadeca-1(18),2(6),4,14,16-pentaen-8-one]
change of crystalline form after being subjected to DVS conditions ([1]; PXRD and IR post-DVS analysis): did not change | hygroscopicity indicated by DVS analysis ([1]; weight change vs relative humidity at 25° C.): not hygroscopic

C[C@@H]1CCC[C@H](n2cnc(-c3cc(Cl)ccc3-n3cc(Cl)nn3)cc2=O)c2cc(ccn2)-c2c(cnn2C(F)F)NC1=O [Form C, (9R,13S)-13-{4-[5-chloro-2-(4-chloro-1H-1,2,3-triazol-1-yl)phenyl]-6-oxo-1,6-dihydropyrimidin-1-yl}-3-(difluoromethyl)-9-methyl-3,4,7,15-tetraazatricyclo[12.3.1.0^2,6]octadeca-1(18),2(6),4,14,16-pentaen-8-one]
hygroscopicity [2]: non-hygroscopic | change in form on VT-PXRD analysis [3]: no change in form

C[C@@H]1CCC[C@H](n2cnc(-c3cc(Cl)ccc3-n3cc(Cl)nn3)cc2=O)c2cc(ccn2)-c2c(cnn2C(F)F)NC1=O [Form J, (9R,13S)-13-{4-[5-chloro-2-(4-chloro-1H-1,2,3-triazol-1-yl)phenyl]-6-oxo-1,6-dihydropyrimidin-1-yl}-3-(difluoromethyl)-9-methyl-3,4,7,15-tetraazatricyclo[12.3.1.0^2,6]octadeca-1(18),2(6),4,14,16-pentaen-8-one]
loss of weight in TGA ([4]; below about 250° C.): no significant loss of weight | onset of decomposition in TGA [4]: about 281 °C
